In ChEMBL document CHEMBL1909046, “DrugMatrix in vitro pharmacology data”:

Columns and labels:
[1] = DRUGMATRIX: beta-Lactamase enzyme inhibition (substrate: Nitrocefin); parameters: species or system Bacillus cereus; details: Not Active = under 50% inhibition at 10 µM
[2] = biological target: Vascular endothelial growth factor receptor 1 (Homo sapiens, UniProt P17948); format: cell-based; details: huvec; note: in other assays of this panel Not Active means under 50% inhibition at 10 µM
[3] = biological target: T1, Vasoactive intestinal polypeptide receptor 1 (Homo sapiens, UniProt P32241); format: cell membranes, Membrane; details: ht-29; note: in other assays of this panel Not Active means under 50% inhibition at 10 µM
T1 sequence (P32241 whole entry): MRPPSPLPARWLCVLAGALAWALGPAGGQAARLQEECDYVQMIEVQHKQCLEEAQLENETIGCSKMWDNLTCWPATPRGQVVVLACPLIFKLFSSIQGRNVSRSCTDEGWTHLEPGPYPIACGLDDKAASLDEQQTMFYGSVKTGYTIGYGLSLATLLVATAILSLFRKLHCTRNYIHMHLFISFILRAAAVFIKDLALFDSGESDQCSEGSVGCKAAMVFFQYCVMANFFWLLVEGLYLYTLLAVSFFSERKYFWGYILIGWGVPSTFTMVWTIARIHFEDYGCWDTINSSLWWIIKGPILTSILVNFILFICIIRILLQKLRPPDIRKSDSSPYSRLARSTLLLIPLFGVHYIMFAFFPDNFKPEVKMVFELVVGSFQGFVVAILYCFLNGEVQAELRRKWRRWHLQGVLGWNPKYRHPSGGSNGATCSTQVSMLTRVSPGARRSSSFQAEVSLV

D(1A) dopamine receptor = D(1A) dopamine receptor (Homo sapiens, UniProt P21728); assay: DRUGMATRIX: Dopamine D1 radioligand binding (ligand: [3H] SCH-23390); format: cell membranes, CHO, Membrane; details: Not Active = under 50% inhibition at 10 µM
[4] = DRUGMATRIX: Glutamate, AMPA radioligand binding (ligand: [3H] AMPA); format: cell membranes, Rattus norvegicus, Wistar, Cerebral cortex, Membrane; details: Not Active = under 50% inhibition at 10 µM
Glycine receptor = Glycine receptor (Rattus norvegicus, UniProt P22771+P24524+P07727+P20781); format: cell membranes, Wistar, Spinal cord, Membrane; note: in other assays of this panel Not Active means under 50% inhibition at 10 µM
Neutrophil elastase = biological target: T2, Neutrophil elastase (Homo sapiens, UniProt P08246); format: tissue-based;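 note: inhibition of neutrophil elastase enzyme activity, measured with a p-nitroanilide-linked peptide substrate; in other assays of this panel Not Active means under 50% inhibition at 10 µM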
T2 sequence (P08246 whole entry): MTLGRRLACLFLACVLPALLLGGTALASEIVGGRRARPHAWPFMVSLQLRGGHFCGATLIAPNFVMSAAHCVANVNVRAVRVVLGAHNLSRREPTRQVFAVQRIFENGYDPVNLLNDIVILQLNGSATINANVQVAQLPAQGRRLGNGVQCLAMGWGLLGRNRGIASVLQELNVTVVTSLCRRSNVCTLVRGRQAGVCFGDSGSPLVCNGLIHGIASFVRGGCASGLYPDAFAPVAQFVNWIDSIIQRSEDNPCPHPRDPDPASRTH

[5] = biological target: Mitogen-activated protein kinase 14 (Homo sapiens, UniProt Q16539); parameters: species or system Escherichia coli
[6] = biological target: Receptor tyrosine-protein kinase erbB-2 (Homo sapiens, UniProt P04626); assay: biochemical; format: cell-based, Insect cells; details: insect cells
Cytochrome P450 2A6 = biological target: T3, Cytochrome P450 2A6 (Homo sapiens, UniProt P11509); details: bti-tn-5b1-4; note: in other assays of this panel Not Active means under 50% inhibition at 10 µM
T3 sequence (P11509 whole entry): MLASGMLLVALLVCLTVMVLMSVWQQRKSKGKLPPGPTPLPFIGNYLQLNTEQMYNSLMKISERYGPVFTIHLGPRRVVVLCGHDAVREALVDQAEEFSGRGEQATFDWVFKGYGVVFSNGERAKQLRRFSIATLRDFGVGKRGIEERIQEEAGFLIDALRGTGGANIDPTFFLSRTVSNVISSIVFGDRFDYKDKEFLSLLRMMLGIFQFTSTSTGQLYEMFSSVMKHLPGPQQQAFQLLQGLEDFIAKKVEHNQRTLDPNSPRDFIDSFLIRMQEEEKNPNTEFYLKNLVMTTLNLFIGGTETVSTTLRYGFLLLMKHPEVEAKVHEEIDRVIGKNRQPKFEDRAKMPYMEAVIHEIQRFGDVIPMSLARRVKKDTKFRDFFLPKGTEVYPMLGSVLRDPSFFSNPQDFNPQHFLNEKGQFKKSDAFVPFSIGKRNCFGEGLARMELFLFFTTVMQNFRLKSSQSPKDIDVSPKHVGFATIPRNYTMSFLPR

Estrogen receptor = biological target: T4, Estrogen receptor (Homo sapiens, UniProt P03372); details: sf9; note: in other assays of this panel Not Active means under 50% inhibition at 10 µM
T4 sequence (P03372 whole entry): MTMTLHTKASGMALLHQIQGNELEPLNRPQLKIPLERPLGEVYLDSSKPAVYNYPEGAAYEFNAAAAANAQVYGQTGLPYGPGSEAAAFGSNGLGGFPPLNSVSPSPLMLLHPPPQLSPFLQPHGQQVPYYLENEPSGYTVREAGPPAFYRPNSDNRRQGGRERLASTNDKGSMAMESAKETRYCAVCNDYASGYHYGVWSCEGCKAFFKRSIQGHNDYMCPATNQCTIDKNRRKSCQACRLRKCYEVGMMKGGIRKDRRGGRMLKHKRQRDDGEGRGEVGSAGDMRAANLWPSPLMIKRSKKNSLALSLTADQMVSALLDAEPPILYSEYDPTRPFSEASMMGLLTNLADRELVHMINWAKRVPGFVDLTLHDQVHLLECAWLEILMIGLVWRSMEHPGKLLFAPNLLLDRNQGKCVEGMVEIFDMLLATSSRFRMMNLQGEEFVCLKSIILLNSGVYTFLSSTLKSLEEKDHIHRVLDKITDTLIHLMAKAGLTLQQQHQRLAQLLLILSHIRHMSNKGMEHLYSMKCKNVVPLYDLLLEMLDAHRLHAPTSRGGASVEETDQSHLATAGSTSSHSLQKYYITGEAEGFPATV

Vascular endothelial growth factor receptor 1, sequence (P17948 whole entry): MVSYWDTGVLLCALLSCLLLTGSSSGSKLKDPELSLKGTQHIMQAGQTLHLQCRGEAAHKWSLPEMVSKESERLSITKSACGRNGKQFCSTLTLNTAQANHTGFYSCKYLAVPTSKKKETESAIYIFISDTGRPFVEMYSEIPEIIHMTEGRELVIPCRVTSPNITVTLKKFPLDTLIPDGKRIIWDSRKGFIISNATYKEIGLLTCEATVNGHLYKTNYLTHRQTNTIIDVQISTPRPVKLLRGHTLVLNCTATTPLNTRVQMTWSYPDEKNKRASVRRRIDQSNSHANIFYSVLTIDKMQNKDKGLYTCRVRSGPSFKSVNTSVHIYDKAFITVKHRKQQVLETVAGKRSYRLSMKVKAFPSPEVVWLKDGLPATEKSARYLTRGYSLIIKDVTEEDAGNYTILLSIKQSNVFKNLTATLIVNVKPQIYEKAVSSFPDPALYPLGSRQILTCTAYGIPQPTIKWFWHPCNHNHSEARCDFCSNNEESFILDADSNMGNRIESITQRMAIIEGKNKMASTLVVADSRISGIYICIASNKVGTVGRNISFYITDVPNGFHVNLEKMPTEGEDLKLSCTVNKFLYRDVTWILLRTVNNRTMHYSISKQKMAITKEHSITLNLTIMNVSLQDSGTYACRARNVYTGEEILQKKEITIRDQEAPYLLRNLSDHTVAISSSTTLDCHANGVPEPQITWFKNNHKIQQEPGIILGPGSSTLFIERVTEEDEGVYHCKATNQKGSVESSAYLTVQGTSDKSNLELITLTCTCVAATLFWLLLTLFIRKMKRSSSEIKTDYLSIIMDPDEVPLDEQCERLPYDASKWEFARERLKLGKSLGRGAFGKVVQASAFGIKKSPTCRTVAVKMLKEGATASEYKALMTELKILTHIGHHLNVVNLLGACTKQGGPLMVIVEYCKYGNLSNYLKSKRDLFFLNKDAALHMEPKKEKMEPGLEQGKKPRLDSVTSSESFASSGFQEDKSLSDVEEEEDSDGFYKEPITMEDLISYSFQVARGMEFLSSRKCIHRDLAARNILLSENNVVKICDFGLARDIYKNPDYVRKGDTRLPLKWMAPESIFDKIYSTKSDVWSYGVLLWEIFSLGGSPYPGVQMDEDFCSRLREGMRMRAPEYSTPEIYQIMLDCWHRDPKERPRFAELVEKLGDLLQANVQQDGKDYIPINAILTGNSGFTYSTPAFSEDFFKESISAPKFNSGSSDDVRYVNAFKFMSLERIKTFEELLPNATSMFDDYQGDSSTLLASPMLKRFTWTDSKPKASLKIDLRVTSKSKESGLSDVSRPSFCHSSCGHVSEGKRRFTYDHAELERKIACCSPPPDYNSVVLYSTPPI
Mitogen-activated protein kinase 14, sequence (Q16539 whole entry): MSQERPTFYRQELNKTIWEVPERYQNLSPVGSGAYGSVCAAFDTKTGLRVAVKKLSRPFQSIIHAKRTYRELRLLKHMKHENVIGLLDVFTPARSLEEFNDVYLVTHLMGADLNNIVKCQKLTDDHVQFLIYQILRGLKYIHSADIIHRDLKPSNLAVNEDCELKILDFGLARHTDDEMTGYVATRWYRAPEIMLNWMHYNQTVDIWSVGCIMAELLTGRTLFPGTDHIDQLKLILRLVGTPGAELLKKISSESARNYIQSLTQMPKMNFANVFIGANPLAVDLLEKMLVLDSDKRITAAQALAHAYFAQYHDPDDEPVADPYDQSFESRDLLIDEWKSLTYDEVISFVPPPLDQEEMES
D(1A) dopamine receptor, sequence (P21728 whole entry): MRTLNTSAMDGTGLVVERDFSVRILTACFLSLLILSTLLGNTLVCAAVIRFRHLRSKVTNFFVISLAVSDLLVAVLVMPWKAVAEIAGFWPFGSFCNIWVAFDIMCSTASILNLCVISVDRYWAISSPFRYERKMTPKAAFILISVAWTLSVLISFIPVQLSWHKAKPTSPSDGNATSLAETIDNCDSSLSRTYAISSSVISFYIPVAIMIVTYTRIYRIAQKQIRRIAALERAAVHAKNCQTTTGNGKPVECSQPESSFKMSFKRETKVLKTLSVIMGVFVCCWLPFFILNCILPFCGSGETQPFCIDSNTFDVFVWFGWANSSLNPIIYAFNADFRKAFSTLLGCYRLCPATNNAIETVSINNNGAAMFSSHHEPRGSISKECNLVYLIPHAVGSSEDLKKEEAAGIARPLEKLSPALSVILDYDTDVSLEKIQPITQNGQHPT

N#C[C@H](O[C@@H]1O[C@H](CO[C@@H]2O[C@H](CO)[C@@H](O)[C@H](O)[C@H]2O)[C@@H](O)[C@H](O)[C@H]1O)c1ccccc1 [AMYGDALIN]
IC50 [1]: Not Active
Ki [1]: Not Active
IC50 [2]: Not Active
IC50 [3]: Not Active
IC50 (D(1A) dopamine receptor; cho): Not Active
IC50 [4]: Not Active
Ki [4]: Not Active
IC50 (Glycine receptor): Not Active
IC50 (Neutrophil elastase): Not Active
IC50 [5]: Not Active
IC50 [6]: Not Active
IC50 (Cytochrome P450 2A6): Not Active
Ki (Cytochrome P450 2A6): Not Active
IC50 (Estrogen receptor): Not Active

C=C1[C@@H]2CCC3[C@@](CC[C@@H]4[C@H](C(=O)O)C[C@@H](O[C@@H]5O[C@H](CO)[C@@H](OS(=O)(=O)[O-])[C@H](OS(=O)(=O)[O-])[C@H]5OC(=O)CC(C)C)C[C@@]34C)(C2)[C@@H]1O.[K+].[K+] (some centres undefined) [ATRACTYLOSIDE]
IC50 [1]: Not Active
Ki [1]: Not Active
IC50 [2]: Not Active
IC50 [3]: Not Active
IC50 (D(1A) dopamine receptor; cho): Not Active
IC50 [4]: Not Active
Ki [4]: Not Active
IC50 (Glycine receptor): Not Active
IC50 (Neutrophil elastase): Not Active
IC50 [5]: Not Active
IC50 [6]: Not Active
IC50 (Cytochrome P450 2A6): Not Active
Ki (Cytochrome P450 2A6): Not Active
IC50 (Estrogen receptor): Not Active

CCCC[C@@H](CC)COC(=O)c1ccccc1C(=O)OC[C@@H](CC)CCCC [BIS(2-ETHYLHEXYL)PHTHALATE]
IC50 [1]: Not Active
Ki [1]: Not Active
IC50 [2]: Not Active
IC50 [3]: Not Active
IC50 (D(1A) dopamine receptor; cho): Not Active
IC50 [4]: Not Active
Ki [4]: Not Active
IC50 (Glycine receptor): Not Active
IC50 (Neutrophil elastase): Not Active
IC50 [5]: Not Active
IC50 [6]: Not Active
IC50 (Cytochrome P450 2A6): Not Active
Ki (Cytochrome P450 2A6): Not Active
IC50 (Estrogen receptor): Not Active

CN1C[C@H](C(=O)N[C@]2(C)O[C@@]3(O)[C@@H]4CCCN4C(=O)[C@H](Cc4ccccc4)N3C2=O)C=C2c3cccc4[nH]cc(c34)C[C@H]21 [ERGOTAMINE]
IC50 [1]: Not Active
Ki [1]: Not Active
IC50 [2]: Not Active
IC50 [3]: Not Active
IC50 (D(1A) dopamine receptor; read-out: IC50): 1730 nM
Ki (D(1A) dopamine receptor; read-out: Ki): 864 nM
IC50 [4]: Not Active
Ki [4]: Not Active
IC50 (Glycine receptor): Not Active
IC50 (Neutrophil elastase): Not Active
IC50 [5]: Not Active
IC50 [6]: Not Active
IC50 (Cytochrome P450 2A6): Not Active
Ki (Cytochrome P450 2A6): Not Active
IC50 (Estrogen receptor): Not Active

C=C(C)[C@@H]1[C@H]2OC(=O)[C@@H]1[C@]1(O)C[C@H]3O[C@]34C(=O)O[C@H]2[C@]14C [PICROTOXININ]
IC50 [1]: Not Active
Ki [1]: Not Active
IC50 [2]: Not Active
IC50 [3]: Not Active
IC50 (D(1A) dopamine receptor; cho): Not Active
IC50 [4]: Not Active
Ki [4]: Not Active
IC50 (Glycine receptor): Not Active
IC50 (Neutrophil elastase): Not Active
IC50 [5]: Not Active
IC50 [6]: Not Active
IC50 (Cytochrome P450 2A6): Not Active
Ki (Cytochrome P450 2A6): Not Active
IC50 (Estrogen receptor): Not Active

CARBOPLATIN
IC50 [1]: Not Active
Ki [1]: Not Active
IC50 [2]: Not Active
Ki [2]: Not Active
IC50 [3]: Not Active
Ki [3]: Not Active
IC50 (D(1A) dopamine receptor; cho): Not Active
Ki (D(1A) dopamine receptor; cho): Not Active
IC50 [4]: Not Active
Ki [4]: Not Active
IC50 (Glycine receptor): Not Active
Ki (Glycine receptor): Not Active
IC50 (Neutrophil elastase): Not Active
Ki (Neutrophil elastase): Not Active
IC50 [5]: Not Active
Ki [5]: Not Active
IC50 [6]: Not Active
Ki [6]: Not Active
IC50 (Cytochrome P450 2A6): Not Active
Ki (Cytochrome P450 2A6): Not Active
IC50 (Estrogen receptor): Not Active
Ki (Estrogen receptor): Not Active

CISPLATIN
IC50 [1]: Not Active
Ki [1]: Not Active
IC50 [2]: Not Active
Ki [2]: Not Active
IC50 [3]: Not Active
Ki [3]: Not Active
IC50 (D(1A) dopamine receptor; cho): Not Active
Ki (D(1A) dopamine receptor; cho): Not Active
IC50 [4]: Not Active
Ki [4]: Not Active
IC50 (Glycine receptor): Not Active
Ki (Glycine receptor): Not Active
IC50 (Neutrophil elastase): Not Active
Ki (Neutrophil elastase): Not Active
IC50 [5]: Not Active
Ki [5]: Not Active
IC50 [6]: Not Active
Ki [6]: Not Active
IC50 (Cytochrome P450 2A6): Not Active
Ki (Cytochrome P450 2A6): Not Active
IC50 (Estrogen receptor): Not Active
Ki (Estrogen receptor): Not Active

GOLD SODIUM THIOMALATE
IC50 [1]: Not Active
Ki [1]: Not Active
IC50 [2]: Not Active
Ki [2]: Not Active
IC50 [3]: Not Active
Ki [3]: Not Active
IC50 (D(1A) dopamine receptor; cho): Not Active
Ki (D(1A) dopamine receptor; cho): Not Active
IC50 [4]: Not Active
Ki [4]: Not Active
IC50 (Glycine receptor): Not Active
Ki (Glycine receptor): Not Active
IC50 (Neutrophil elastase): Not Active
Ki (Neutrophil elastase): Not Active
IC50 [5]: Not Active
Ki [5]: Not Active
IC50 [6]: Not Active
Ki [6]: Not Active
IC50 (Cytochrome P450 2A6): Not Active
Ki (Cytochrome P450 2A6): Not Active
IC50 (Estrogen receptor): Not Active
Ki (Estrogen receptor): Not Active

OXALIPLATIN
IC50 [1]: Not Active
Ki [1]: Not Active
IC50 [2]: Not Active
Ki [2]: Not Active
IC50 [3]: Not Active
Ki [3]: Not Active
IC50 (D(1A) dopamine receptor; cho): Not Active
Ki (D(1A) dopamine receptor; cho): Not Active
IC50 [4]: Not Active
Ki [4]: Not Active
IC50 (Glycine receptor): Not Active
Ki (Glycine receptor): Not Active
IC50 (Neutrophil elastase): Not Active
Ki (Neutrophil elastase): Not Active
IC50 [5]: Not Active
Ki [5]: Not Active
IC50 [6]: Not Active
Ki [6]: Not Active
IC50 (Cytochrome P450 2A6): Not Active
Ki (Cytochrome P450 2A6): Not Active
IC50 (Estrogen receptor): Not Active
Ki (Estrogen receptor): Not Active
